Data set [1] has as its system Balb-C mice. The experiment in a line: Example 112: luciferase mRNA electroporation dose response, total flux (Tables 179, 180). The settings on record: mouse, in vivo. The protocol:
The mice undergoing electroporation were subjected to electroporation (EP) using the […]™ instrument (Harvard Apparatus/BTX®, Holliston, Mass.), as outlined in Table 179, immediately after the administration of luciferase or the control.
All of the mice are imaged at 3 hours, 24 hours, 48 hours, 168 hours, 336 hours and 504 hours post-administration of luciferase modified mRNA. Twenty minutes prior to imaging, the mice are injected intraperitoneally with a D-luciferin solution at 150 mg/kg. Animals are then anesthetized and images were acquired with an IVIS Lumina II imaging system (Perkin Elmer). Bioluminescence is measured as total flux (photons/second) of the entire mouse.

The subject of data set [2] is Balb-C mice. Kind of data set: Example 108: luciferase mRNA IM with electroporation, total flux (Tables 174-176). Type of data set: in vivo. The settings on record: 2.5 mg/kg IM with electroporation. The protocol: The mice of Group 2 were treated with electroporation (EP) using the […]™ instrument (Harvard Apparatus/BTX®, Holliston, Mass.) immediately after administration of luciferase.
[…] Twenty minutes prior to imaging, the mice were injected intraperitoneally with a D-luciferin solution at 150 mg/kg. Animals were then anesthetized and images were acquired with an IVIS Lumina II imaging system (Perkin Elmer). Bioluminescence was measured as total flux (photons/second) of the entire mouse.

Data set [3] deals with Balb-C mice. The experiment in a line: Example 76: modified luciferase mRNA in PBS IM, SC in mice, total flux (Tables 115, 116). Format: in vivo. The settings on record: 2.5 mg/kg, PBS (pH 7.4). As for the experimental part:
The mice were imaged at 2 hours, 8 hours, 24 hours, 48 hours, 72 hours, 96 hours, 120 hours and 144 hours for intramuscular delivery and 2 hours, 8 hours, 24 hours, 48 hours, 72 hours, 96 hours and 120 hours for subcutaneous delivery. Twenty minutes prior to imaging, mice were injected intraperitoneally with a D-luciferin solution at 150 mg/kg. Animals were then anesthetized and images were acquired with an IVIS Lumina II imaging system (Perkin Elmer). Bioluminescence was measured as total flux (photons/second) of the entire mouse. The average total flux (photons/second) for intramuscular administration is shown in Table 115 and the average total flux (photons/second) for subcutaneous administration is shown in Table 116. The background signal was 3.79E+05 (p/s). The peak expression for intramuscular administration was seen between 24 and 48 hours for all chemistry and expression was still detected at 144 hours.

The test system of data set [4] is Balb-C mice. Kind of data set: Example 85: lipoplexed luciferase mRNA IV, IM, SC, flux and organ flux (Tables 131, 132). Type of data set: in vivo. The settings on record: 0.10 mg/kg; for Flux (average total flux, entire mouse): Balb-C mice; for Organ Flux, Inj. Site: imaged at 6 hours; for Organ Flux, Kidney / Organ Flux, Liver / Organ Flux, Lung / Organ Flux, Spleen: organs imaged at 6 hours. The protocol: The formulation was administered intravenously (I.V.), intramuscularly (I.M.) or subcutaneously (S.C.) to Balb-C mice at a dose of 0.10 mg/kg.
Twenty minutes prior to imaging, mice were injected intraperitoneally with a D-luciferin solution at 150 mg/kg. Animals were then anesthetized and images were acquired with an IVIS Lumina II imaging system (Perkin Elmer). Bioluminescence was measured as total flux (photons/second) of the entire mouse. The mice were imaged at 8 hours, 24 hours and 48 hours after dosing and the average total flux (photons/second) was measured for each route of administration and chemical modification. The background signal was about 3.91E+05 p/s. Organs were imaged at 6 hours and the average total flux (photons/second) was measured for the liver, spleen, lung and kidney. A control for each organ was also analyzed.

In data set [5] the test system is Balb-C mice. The experiment in a line: Example 113: FGF21 mRNA IM with or without electroporation, serum FGF21 (Tables 181, 182). Format: in vivo. The settings on record: 5 mg/kg IM. As for the experimental part: The mice undergoing electroporation were subjected to electroporation (EP) using the […]′ instrument (Harvard Apparatus/BTX®, Holliston, Mass.), as outlined in Table 181, immediately after the administration of FGF21 mRNA or the control.
Serum was collected from the mice at 2 hours and 8 hours.

Consider “Luciferase modified mRNA: luciferase mRNA, SEQ ID NO: 14, fully modified with 5-methylcytosine and 1-methylpseudouridine, in PBS (pH 7.4)”, for which, in data set [1], the “protein expression with vs without electroporation” value is “increase protein expression”. In data set [2], the “expression greater than an order of magnitude above background out to” value turned out to be 480 h. Also, the Flux in data set [3] (Intramuscular, 2 hours) turned out to be 4.65E+06 p/s; in data set [3] (Intramuscular, 8 hours), 3.64E+06 p/s; in data set [3] (Intramuscular, 24 hours) it was 1.22E+07 p/s; in data set [3] (Intramuscular, 48 hours) it was 1.01E+07 p/s; in data set [3] (Intramuscular, 72 hours) it was 8.59E+06 p/s; in data set [3] (Intramuscular, 96 hours), 2.70E+06 p/s. The Flux in data set [3] (Intramuscular, 120 hours) is on record as 1.60E+06 p/s; in data set [3] (Intramuscular, 144 hours), 2.19E+06 p/s; in data set [3] (Subcutaneous, 2 hours), 4.54E+06 p/s; in data set [3] (Subcutaneous, 8 hours), 8.75E+05 p/s; in data set [3] (Subcutaneous, 24 hours), 5.49E+06 p/s; in data set [3] (Subcutaneous, 48 hours), 1.77E+06 p/s. Moreover, the Flux turned out to be 8.00E+05 p/s in data set [3] (Subcutaneous, 72 hours); 5.33E+05 p/s in data set [3] (Subcutaneous, 96 hours); 4.09E+05 p/s in data set [3] (Subcutaneous, 120 hours). The “Flux (average total flux, entire mouse)” value in data set [4] (I.M., 8 hrs) was 2.53E+06 p/s; in data set [4] (I.M., 24 hrs), 7.84E+05 p/s; in data set [4] (I.M., 48 hrs), 6.59E+05 p/s; in data set [4] (I.V., 8 hrs), 1.78E+06 p/s; in data set [4] (I.V., 24 hrs), 7.13E+05 p/s; in data set [4] (I.V., 48 hrs), 3.76E+05 p/s. Also, the “Flux (average total flux, entire mouse)” value is on record as 6.48E+06 p/s in data set [4] (S.C., 8 hrs); 7.15E+06 p/s in data set [4] (S.C., 24 hrs); 3.20E+06 p/s in data set [4] (S.C., 48 hrs). Besides, the “Organ Flux, Inj. Site” value in data set [4] (I.M.) is recorded as 1.20E+06 p/s; in data set [4] (S.C.), 8.29E+04 p/s. The “Organ Flux, Kidney” value came out at 1.56E+04 p/s in data set [4] (I.M.), 1.77E+04 p/s in data set [4] (I.V.) and 1.14E+04 p/s in data set [4] (S.C.). Besides, the “Organ Flux, Liver” value stood at 1.72E+04 p/s in data set [4] (I.M.), 1.48E+05 p/s in data set [4] (I.V.) and 1.20E+04 p/s in data set [4] (S.C.). Besides, the results for the “Organ Flux, Lung” value in data set [4] (I.M.), in data set [4] (I.V.) and in data set [4] (S.C.) were 1.99E+04 p/s, 1.93E+06 p/s and 1.38E+04 p/s, respectively. Besides, the entries for the “Organ Flux, Spleen” value in data set [4] (I.M.), in data set [4] (I.V.) and in data set [4] (S.C.) were 1.76E+04 p/s, 5.00E+06 p/s and 1.46E+04 p/s, respectively.

B1: FGF21 modified mRNA: Fibroblast Growth Factor 21 mRNA, SEQ ID NO: 24, 5-methylcytosine and 1-methylpseudouridine, in PBS (nucleic acid)
chain: GGGAAAUAAGAGAGAAAAGAAGAGUAAGAAGAAAUAUAAGAGCCACCAUGGACUCGGACGAGACCGGGUUCGAGCACUCAGGACUGUGGGUUUCUGUGCUGGCUGGUCUUCUGCUGGGAGCCUGCCAGGCACACCCCAUCCCUGACUCCAGUCCUCUCCUGCAAUUCGGGGGCCAAGUCCGGCAGCGGUACCUCUACACAGAUGAUGCCCAGCAGACAGAAGCCCACCUGGAGAUCAGGGAGGAUGGGACGGUGGGGGGCGCUGCUGACCAGAGCCCCGAAAGUCUCCUGCAGCUGAAAGCCUUGAAGCCGGGAGUUAUUCAAAUCUUGGGAGUCAAGACAUCCAGGUUCCUGUGCCAGCGGCCAGAUGGGGCCCUGUAUGGAUCGCUCCACUUUGACCCUGAGGCCUGCAGCUUCCGGGAGCUGCUUCUUGAGGACGGAUACAAUGUUUACCAGUCCGAAGCCCACGGCCUCCCGCUGCACCUGCCAGGGAACAAGUCCCCACACCGGGACCCUGCACCCCGAGGACCAGCUCGCUUCCUGCCACUACCAGGCCUGCCCCCCGCACCCCCGGAGCCACCCGGAAUCCUGGCCCCCCAGCCCCCCGAUGUGGGCUCCUCGGACCCUCUGAGCAUGGUGGGACCUUCCCAGGGCCGAAGCCCCAGCUACGCUUCCUGAUAAUAGGCUGGAGCCUCGGUGGCCAUGCUUCUUGCCCCUUGGGCCUCCCCCCAGCCCCUCCUCCCCUUCCUGCACCCGUACCCCCGUGGUCUUUGAAUAAAGUCUGAGUGGGCGGC
modifications: 5-methylcytosine, 1-methylpseudouridine
As for B1, the “protein production with vs without electroporation” value in data set [5] is “increase protein production”.
